Experimental data as given in US10660898B2, “Benzimidazole derivatives as PI3 kinase inhibitors” (GLAXOSMITHKLINE LLC, priority 2010, dated 2020).

Legend:
Test in all cases: Anchorage independent soft agar tumor growth assay
Assay type in all cases: cell-based
HCC70 = HCC70 breast carcinoma, PTEN p.F90fs*9, No protein
Method: (§1) Cellular Assays—Cell Growth Inhibition Assay in PTEN Wild-Type or PTEN Deficient Tumor Cell Lines Twenty-two Phosphatase and Tensin Homolog (PTEN) wild-type or PTEN deficient tumor cell lines were cultured generally according to instructions supplied by cell culture supplier American Type Culture Collection, Manassas, Va., with 10% fetal bovine serum at 5% CO2 and 37° C. Cells were seeded into either a T-75 or a T-175 flask 3-4 days prior to 96-well assay plating such that the flasks were approximately 70-80% confluent of the time of harvest. Cells were harvested using 0.25% trypsin-EDTA (Invitrogen #25200056). Trypan Blue exclusion staining was used to determine cell number. Viable cells were plated in clear, flat bottom 96-well plates (BD #353075) under anchorage independent conditions at 2,000-10,000 cells per well depending on the cell line. To generate anchorage independent growth conditions, a 5% agar stock solution in water was made and autoclaved to melt and sterilize. From the 5% agar solution, a 0.6% agar/media+10% fetal bovine serum (FBS) solution was made to generate a bottom agar layer in the plates to prevent cell attachment. Seventy five microliters per well of the 0.6% agar-media solution was added to the plates. After solidification, a cell solution of 266,870 to 1, 334,022 cells (depending on the cell line) in 10 ml of 0.3% agar/media+10% FBS was made and 75 μl of the cell/media/agar suspension was added to the plates. After the cell layer solidified, 50 μl of media+10% FBS was added to the top of the cells. A 0.3% Brij 35 (Sigma B4184) solution in media+10% FBS was added to column 12 as a background subtraction control. The cells were incubated overnight at 5% CO2 and 37° C. The next day one plate of cells was processed at the time of compound addition to quantify the starting number of cells (T=0 or T0). […] Three hundred microliters of media was added to the compound dilutions. Ten microliters per well of the serial dilutions was added to the cells and the plates incubated for 6 days at 5% CO2 and 37° C. […] Following the 6-day incubation, 20 μl of Alamar Blue (Invitrogen # DAL1100) was added to the cells, incubated at 5% CO2 and 37° C. for 6 hours and the plates read on a Spectramax (Gemini EM) at 530 nm (excitation) and 590 nm (emission) with the auto cut-off disabled. For analysis of cell growth inhibition dose response curves, the data was plotted as the percent of the DMSO-treated control samples (DMSO samples set to 100%). […] Values from wells containing 0.3% Brij 35 (under anchorage independent conditions) were subtracted from all samples for background correction.

H4 = H4 CNS glioblastoma, PTEN Loss, No protein
Method: as §1

U251 = U251 CNS glioblastoma, PTEN p.E242fs*15, No protein
Method: as §1

UM-UC-3 = UM-UC-3 bladder transitional, PTEN Loss, No protein
Method: as §1

LOXIMVI = LOXIMVI skin melanoma, PTEN Wild-type, Protein
Method: as §1

SW1088 = SW1088 CNS glioblastoma, PTEN Loss, No protein
Method: as §1

MDA-MB-468 = MDA-MB-468 breast carcinoma, PTEN p.?, L70Fs*7, No protein
Method: as §1

U-87MG = U-87MG CNS glioblastoma, PTEN p.? (splice site mutation), No protein
Method: as §1

HCC19377 = HCC19377 breast carcinoma, PTEN Loss, No protein
Method: as §1

C32 = C32 skin melanoma, PTEN p.55fs*, No protein
Method: as §1

HCC1954 = HCC1954 breast carcinoma, PTEN Wild-type, Protein
Method: as §1

CHL-1 = CHL-1 skin melanoma, PTEN Wild-type, Protein
Method: as §1

SKOV-3 = SKOV-3 ovary adenocarcinoma, PTEN Wild-type
Method: as §1

BT474 = BT474 breast carcinoma, PTEN Wild-type, Protein
Method: as §1

UACC-62 = UACC-62 skin melanoma, PTEN p.P248fs*5, No protein
Method: as §1

[1] = percent of DMSO-treated control
[2] = Homo sapiens, 144 h, 6-day incubation, Alamar Blue, read-out: Compound EC50 (nM) ± StDev
[3] = 144 h, 6-day incubation, Alamar Blue, read-out: Compound EC50 (nM) ± StDev

Compound: Cc1c(Cn2c(C)nc3c(C(=O)O)cc(N4CCOCC4)cc32)cccc1C(F)(F)F [Example 31, 2-methyl-1-{[2-methyl-3-(trifluoromethyl)phenol]methyl}-6-(4-morpholinyl)-1H-benzimidazole-4-carboxylic acid]
- Compound Ymin ± StDev (HCC70; [1]): 27 ± 8
- EC50 (HCC70; [2]): 53 ± 21 nM
- EC50 (H4; [3]): 12 ± 8 nM
- Compound Ymin ± StDev (H4; [1]): 55 ± 18
- EC50 (U251; Homo sapiens, U-251, 144 h, 6-day incubation, Alamar Blue, read-out: Compound EC50 (nM) ± StDev): 19000 ± 8620 nM
- Compound Ymin ± StDev (U251; [1]): 80 ± 17
- EC50 (UM-UC-3; Homo sapiens, UMUC3, 144 h, 6-day incubation, Alamar Blue, read-out: Compound EC50 (nM) ± StDev): 10 ± 8 nM
- Compound Ymin ± StDev (UM-UC-3; [1]): 83 ± 29
- EC50 (LOXIMVI; Homo sapiens, LOX IMVI, 144 h, 6-day incubation, Alamar Blue, read-out: Compound EC50 (nM) ± StDev): > 30700 nM
- Compound Ymin ± StDev (LOXIMVI; [1]): >90
- EC50 (SW1088; [2]): 12 ± 6 nM
- Compound Ymin ± StDev (SW1088; [1]): 36 ± 8
- EC50 (MDA-MB-468; [2]): 89 ± 55 nM
- Compound Ymin ± StDev (MDA-MB-468; [1]): 44 ± 6
- EC50 (U-87MG; [2]): 2980 ± 2770 nM
- Compound Ymin ± StDev (U-87MG; [1]): 34 ± 18
- EC50 (HCC19377; [3]): 24 ± 8 nM
- Compound Ymin ± StDev (HCC19377; [1]): 67 ± 8
- Compound Ymin ± StDev (C32; [1]): 20 ± 14
- EC50 (C32; [2]): 8 ± 2 nM
- Compound Ymin ± StDev (HCC1954; [1]): >80
- EC50 (HCC1954; [2]): > 30700 nM
- Compound Ymin ± StDev (CHL-1; [1]): 82 ± 2
- EC50 (CHL-1; [2]): 14 ± 6 nM
- EC50 (SKOV-3; Homo sapiens, SK-OV-3, 144 h, 6-day incubation, Alamar Blue, read-out: Compound EC50 (nM) ± StDev): > 30700 nM
- Compound Ymin ± StDev (SKOV-3; [1]): >80
- Compound Ymin ± StDev (BT474; [1]): 75 ± 3
- EC50 (BT474; Homo sapiens, BT-474, 144 h, 6-day incubation, Alamar Blue, read-out: Compound EC50 (nM) ± StDev): 3360 ± 868 nM
- EC50 (UACC-62; [2]): 23 ± 27 nM
- Compound Ymin ± StDev (UACC-62; [1]): 76 ± 18
